# How the values were obtained:
# Test in all cases: relative viability (nuclei count vs DMSO), 5 days (fraction); higher = more cells survive
# Afatinib + Palbociclib = compound: CN(C)C/C=C/C(=O)Nc1cc2c(Nc3ccc(F)c(Cl)c3)ncnc2cc1O[C@H]1CCOC1 [Afatinib] + CC(=O)c1c(C)c2cnc(Nc3ccc(N4CCNCC4)cn3)nc2n(C2CCCC2)c1=O [Palbociclib] (partner 0.5 µM)
# In short: (§1)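 Lung cancer cell lines, seeded in 1536-well plates, were treated the following day by pin tool with a single drug or with five library-drug doses (not always all listed) in √10 steps on top of a fixed anchor-drug dose. Cells were fixed and nuclei stained in one step after 5 days, and nuclei were counted. Relative viability is the nuclei count for treated wells divided by that for vehicle wells, reported as medians of duplicate plates.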
# Afatinib + Bortezomib = compound: CN(C)C/C=C/C(=O)Nc1cc2c(Nc3ccc(F)c(Cl)c3)ncnc2cc1O[C@H]1CCOC1 [Afatinib] + CC(C)C[C@H](NC(=O)[C@H](Cc1ccccc1)NC(=O)c1cnccn1)B(O)O [Bortezomib] (partner 0.002 µM)
# In short: as §1
# Afatinib + Alpelisib = compound: CN(C)C/C=C/C(=O)Nc1cc2c(Nc3ccc(F)c(Cl)c3)ncnc2cc1O[C@H]1CCOC1 [Afatinib] + Cc1nc(NC(=O)N2CCC[C@H]2C(N)=O)sc1-c1ccnc(C(C)(C)C(F)(F)F)c1 [Alpelisib] (partner 2 µM)
# In short: as §1
# Afatinib + Dasatinib = compound: CN(C)C/C=C/C(=O)Nc1cc2c(Nc3ccc(F)c(Cl)c3)ncnc2cc1O[C@H]1CCOC1 [Afatinib] + Cc1nc(Nc2ncc(C(=O)Nc3c(C)cccc3Cl)s2)cc(N2CCN(CCO)CC2)n1 [Dasatinib] (partner 0.075 µM)
# In short: as §1
Cell Line,relative viability (Afatinib + Palbociclib; first compound 0.005 µM),relative viability (Afatinib + Palbociclib; first compound 0.01581 µM),relative viability (Afatinib + Palbociclib; first compound 0.05 µM),relative viability (Afatinib + Palbociclib; first compound 0.1581 µM),relative viability (Afatinib + Palbociclib; first compound 0.5 µM),relative viability (Afatinib + Bortezomib; first compound 0.005 µM),relative viability (Afatinib + Bortezomib; first compound 0.01581 µM),relative viability (Afatinib + Bortezomib; first compound 0.05 µM),relative viability (Afatinib + Bortezomib; first compound 0.1581 µM),relative viability (Afatinib + Bortezomib; first compound 0.5 µM),relative viability (Afatinib + Alpelisib; first compound 0.005 µM),relative viability (Afatinib + Alpelisib; first compound 0.01581 µM),relative viability (Afatinib + Alpelisib; first compound 0.05 µM),relative viability (Afatinib + Alpelisib; first compound 0.1581 µM),relative viability (Afatinib + Alpelisib; first compound 0.5 µM),relative viability (Afatinib + Dasatinib; first compound 0.005 µM),relative viability (Afatinib + Dasatinib; first compound 0.01581 µM),relative viability (Afatinib + Dasatinib; first compound 0.05 µM),relative viability (Afatinib + Dasatinib; first compound 0.1581 µM),relative viability (Afatinib + Dasatinib; first compound 0.5 µM)
NCI-H441,0.234,0.231,0.163,0.183,0.207,0.59,0.642,0.864,0.632,0.313,0.831,0.763,0.751,0.581,0.626,0.574,0.488,0.573,0.435,0.402
NCI-H1793,0.258,0.3,0.273,0.218,0.21,,,,,,0.57,0.658,0.555,0.544,0.527,0.33,0.341,0.343,0.361,0.272
NCI-H23,0.561,0.469,0.482,0.486,0.448,0.951,0.948,0.995,0.901,0.904,0.771,0.735,0.725,0.636,0.561,0.682,0.69,0.754,0.884,0.83
HARA,0.188,0.242,0.204,0.189,0.197,1.02,0.763,0.683,0.836,0.754,0.45,0.652,0.397,0.313,0.397,0.179,0.182,0.217,0.178,0.209
NCI-H1792,0.73,0.661,0.63,0.599,0.651,0.841,0.759,0.975,0.906,0.938,0.64,0.732,0.722,0.674,0.668,0.657,0.84,0.748,0.657,0.911
NCI-H1703,,,,,,0.414,0.299,0.343,0.288,0.281,0.313,0.322,0.286,0.278,0.314,,,,,
NCI-H2342,0.528,0.497,0.473,0.424,0.475,,,,,,,,,,,0.315,0.281,0.295,0.305,0.297
CAL-12T,0.51,0.209,0.213,0.172,0.161,1.2,0.81,0.608,0.56,0.644,1.18,0.973,0.929,,0.584,0.261,0.236,0.193,0.189,0.194
NCI-H727,0.586,0.637,0.6,0.506,0.544,0.85,0.732,0.825,0.863,0.804,0.579,0.462,0.503,0.417,0.561,0.366,,0.204,0.282,0.249
NCI-H2085,0.445,0.448,0.42,0.36,0.419,1.01,0.902,0.932,0.894,0.975,0.944,0.873,0.812,0.659,0.803,0.238,0.263,0.22,0.199,0.212
NCI-H1395,0.592,0.572,0.625,0.591,0.606,,,,,,1.11,1.17,1.08,1.41,1.29,0.453,0.408,0.415,0.404,0.376
NCI-H1648,0.248,0.304,0.269,0.344,0.263,,,,,,,,,,,,,,,
NCI-H460,0.165,0.175,0.237,0.184,0.242,1.34,1.1,1.09,1.1,0.997,0.52,0.509,0.484,0.543,0.349,0.531,0.527,0.469,0.467,0.535
A549,,,,,,,,,,,0.629,0.632,0.631,0.61,0.642,,,,,
IA-LM,,,,,,0.929,0.719,0.796,0.828,0.825,0.653,0.658,0.691,0.693,0.797,,,,,
EKVX,0.317,0.265,0.188,0.147,0.141,0.811,0.655,0.468,0.308,0.199,0.713,0.704,0.46,0.187,0.156,0.334,0.429,0.339,0.319,0.231
ChaGo-K-1,0.932,0.977,0.977,0.864,0.96,1.18,0.92,0.8,0.924,1.07,,,,,,0.631,0.52,0.535,0.65,0.541

Cell Line,relative viability (Afatinib + Palbociclib; first compound 0.005 µM),relative viability (Afatinib + Palbociclib; first compound 0.01581 µM),relative viability (Afatinib + Palbociclib; first compound 0.05 µM),relative viability (Afatinib + Palbociclib; first compound 0.1581 µM),relative viability (Afatinib + Palbociclib; first compound 0.5 µM),relative viability (Afatinib + Bortezomib; first compound 0.005 µM),relative viability (Afatinib + Bortezomib; first compound 0.01581 µM),relative viability (Afatinib + Bortezomib; first compound 0.05 µM),relative viability (Afatinib + Bortezomib; first compound 0.1581 µM),relative viability (Afatinib + Bortezomib; first compound 0.5 µM),relative viability (Afatinib + Alpelisib; first compound 0.005 µM),relative viability (Afatinib + Alpelisib; first compound 0.01581 µM),relative viability (Afatinib + Alpelisib; first compound 0.05 µM),relative viability (Afatinib + Alpelisib; first compound 0.1581 µM),relative viability (Afatinib + Alpelisib; first compound 0.5 µM),relative viability (Afatinib + Dasatinib; first compound 0.005 µM),relative viability (Afatinib + Dasatinib; first compound 0.01581 µM),relative viability (Afatinib + Dasatinib; first compound 0.05 µM),relative viability (Afatinib + Dasatinib; first compound 0.1581 µM),relative viability (Afatinib + Dasatinib; first compound 0.5 µM)
NCI-H1755,0.463,0.438,0.441,0.456,0.433,0.995,0.925,0.927,0.934,1.03,0.492,0.89,0.882,0.888,0.929,0.483,0.424,0.435,0.393,0.399
NCI-H2228,0.884,0.774,0.705,0.749,0.744,1.19,0.812,0.984,,0.901,0.74,0.78,0.688,,0.589,0.619,0.56,0.55,0.41,0.634
NCI-H2087,0.232,0.185,0.226,0.253,0.191,1.02,0.756,0.867,0.8,0.795,1.23,1.18,1,1.28,1.02,0.992,0.804,0.825,0.852,0.715
LU99A,0.451,0.39,0.425,0.36,0.391,1.19,1.07,1.08,1.08,1.02,0.557,0.468,0.438,0.452,0.489,0.741,0.591,0.594,0.569,0.493
NCI-H1355,0.397,0.338,0.351,0.274,0.315,1.26,1.16,1.29,1.03,1.02,0.782,0.89,0.918,0.656,0.645,0.665,0.742,0.68,0.642,0.643
NCI-H520,0.245,0.241,0.229,0.219,0.229,0.712,0.634,0.748,0.579,0.614,1.07,0.903,1.02,1.01,0.872,0.199,0.178,0.19,0.225,0.14
LK-2,0.621,0.633,0.656,0.673,0.584,,,,,,1.34,,1.04,1.12,1.12,0.26,0.359,0.28,0.216,0.269
NCI-H1944,0.287,0.33,0.272,0.206,0.237,,,,,,0.677,0.763,0.693,0.465,0.518,0.211,0.205,0.21,0.185,0.186
NCI-H1650,0.299,0.257,0.305,0.347,0.269,0.222,,0.204,0.241,0.207,,,,,,0.295,,0.307,0.264,0.28
NCI-H596,,,,,,1.15,1.18,1.11,0.766,1.01,0.542,0.512,0.528,0.385,0.538,0.445,0.456,0.643,0.538,0.602
SK-MES-1,0.305,0.289,0.306,0.257,0.257,,,,,,0.823,0.653,0.396,0.309,0.32,0.247,0.203,0.18,0.139,0.16
NCI-H2170,0.389,0.357,0.275,0.139,0.116,,,,,,0.571,0.421,0.314,0.207,0.233,0.352,0.281,0.157,0.131,0.155
NCI-H358,0.14,0.111,0.12,0.118,0.0955,,,,,,0.668,0.488,0.324,0.255,0.37,0.125,0.111,0.113,0.156,0.128
NCI-H1563,,,,,,0.882,0.774,0.919,0.694,0.759,0.953,0.953,0.87,0.83,1.03,0.476,0.435,0.437,0.501,0.451
EBC-1,,,,,,0.594,0.59,0.562,0.507,0.705,0.787,0.835,0.905,0.81,0.915,,,,,
Calu-6,,,,,,1.15,0.97,1.13,1,1.08,1.05,0.922,1.03,1.01,0.88,,,,,
HCC-44,1,0.968,1.05,0.944,1.02,1.04,0.91,0.891,0.903,1.01,0.803,0.854,0.727,0.728,0.872,,,,,

# — the supplement of paper PMC10307832
